Where two headings read alike, the source gives them in different places.
Assays:
[1] = tested on: CRL2351 human breast cancer; assay: SRB assay (inhibition of cell proliferation); assay type: cell-based; details: CRL2351 human breast cancer cells
Description: (§1) A sulfur rhodamine B (SRB) assay was used to determine the extent of inhibition of cell proliferation as a measure of the anti-cancer activity of compounds of the present disclosure. The reagent SRB binds to cellular proteins and absorbs light proportionally to the cellular protein content, which is a surrogate marker for the number of cells. According to aspects of the present disclosure, the assay can be used to with any cancer cell line including breast cancer cell lines, prostate cancer cell lines, melanoma cell lines, lung cancer cell lines or any other cell lines of the cancers described herein.
(§2) The following protocol was used to determine the growth characteristics of certain cell lines CRL2351 human breast cancer and CRL2813 human melanoma from which cell lines having doubling times less than 48 hours were selected for growth inhibition experiments. […] The following materials were used in addition to the cancel cell lines: complete (5% fetal calf serum added) tissue culture media, 96-well tissue culture plates, Sulforhodamine B dye (SRB, 0.57% w/w), […] (TCA, 10%), acetic acid glacial (1%) and 10 mM Tris base. The cells were prepared and plated. Cancer cells were grown to 80% confluency in an incubator. The cells were trypsinized per standard protocol or as needed for each cell line. The trypsin was neutralized, cells dissociated and counted. Each cell line was plated at a density of 500, 1000 and 3000 cells per well (six wells each) in five separate plates. The cells were then returned to the incubator. One plate was then removed each day starting day one after plating. 100 μl of 10% TCA was then added and the cells were fixed at 4° C. until all the cells were fixed. […] The cell growth for vehicle treatment is considered to be 100%. The optical density was then measured and plotted for each starting cell number and cell line against time. The percent cell growth inhibition was calculated as 100 minus the % of control cell growth. The % of control cell growth=((mean OD sample−Mean OD day 0)/(mean OD vehicle−Mean OD day 0))*100.

[2] = tested on: CRL2813 human melanoma; assay: SRB assay (inhibition of cell proliferation); assay type: cell-based
Description: as §1, §2

[3] = molecular target: eIF4E/eIF4G interaction (Homo sapiens, UniProt P06730); assay: Fluorescent polarization assay; assay type: binding; details: FITC eIF4G peptide and recombinant eIF4E, ratio to Z (4EGI-1 = 1)
Chain of eIF4E/eIF4G interaction (P06730 whole entry): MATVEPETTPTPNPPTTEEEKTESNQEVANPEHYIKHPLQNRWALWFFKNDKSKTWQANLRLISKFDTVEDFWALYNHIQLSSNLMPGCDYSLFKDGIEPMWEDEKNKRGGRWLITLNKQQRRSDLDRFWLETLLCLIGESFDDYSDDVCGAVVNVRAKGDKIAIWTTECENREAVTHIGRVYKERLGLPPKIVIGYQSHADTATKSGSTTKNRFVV
Procedure: The difference between the two measurement yields net polarization which is considered full signal of the assay (100% control). […] The activity of compound at each concentration is determined by comparing the fluorescent polarization (FP) signal in the presence of compound to the control (no compound) value. The percent inhibition is =100-((FP compound/FP control)*100).

[4] = Homo sapiens, Tables 1, 4, 5, read-out: SRB-IC50 (μM) 2351
[5] = Homo sapiens, summary table, read-out: IC50 [μM} CRL2351
[6] = Homo sapiens, CRL2813, CRL2813 human melanoma cells, Tables 1, 4, 5, read-out: SRB-IC50 (μM) 2813
[7] = Homo sapiens, CRL2813, CRL2813 human melanoma cells, summary table, read-out: IC50 [μM} CRL2813
[8] = summary table, read-out: IC50 [μM} CRL2351
[9] = CRL2813 human melanoma cells, summary table, read-out: IC50 [μM} CRL2813

| SMILES | IC50 [1, 4] [µM] | IC50 [1, 5] [µM] | IC50 [2, 6] [µM] | IC50 [2, 7] [µM] | Fp (ratio to Z) [3] | IC50 [1, 8] [µM] | IC50 [2, 9] [µM] |
| --- | --- | --- | --- | --- | --- | --- | --- |
| O=C(O)/C(Cc1ccccc1[N+](=O)[O-])=N/Nc1nc2c(s1)CCc1cc(Cl)c(Cl)cc1-2 [PC-159F, 2-(2-(7,8-dichloro-4,5-dihydronaphtho[1,2-d]thiazol-2-yl)hydrazono)-3-(2-nitrophenyl)propanoic acid] |  | < 1 |  | < 1 | 1.05 |  |  |
| COCc1cn(-c2ccc(-c3sc(NN=C(Cc4ccccc4[N+](=O)[O-])C(=O)O)nc3-c3ccc(OC)cc3)cc2)nn1 [KY-443A16-19] |  | > 20 |  | 14 ± 0.73 | 1 |  |  |
| CCOc1ccc(-c2nc(N/N=C(/Cc3ccccc3[N+](=O)[O-])C(=O)O)sc2-c2ccc(OC)cc2)cc1 [KY-576S] |  |  |  |  | 0.82 | > 20 | 12.8 |
| COc1ccc(-c2nc(NN=C(Cc3ccccc3[N+](=O)[O-])C(=O)O)sc2-c2ccc(OC)cc2)cc1 [KY-323A] |  |  |  |  | 0.67 | 0.6 | 1 |
| O=C(O)C(Cc1ccccc1[N+](=O)[O-])=NNc1nc(-c2ccccc2)c(-c2ccc(Cl)cc2)s1 [KY-349PR] |  | > 20 |  | > 20 | 1 |  |  |
| COc1ccc(-c2nc(NN=C(Cc3ccccc3[N+](=O)[O-])C(=O)O)sc2-c2ccc(OC)c(OC)c2)cc1 [KY-341PRI] |  | 4 ± 0.51 |  | 5 ± 1.74 | 1.2 |  |  |
| O=C(O)/C(=N/Nc1nc(-c2ccc(Cl)c(Cl)c2)cs1)c1cccc([N+](=O)[O-])c1 [KY-788-E, (E)-2-(2-(4-(3,4-dichlorophenyl)thiazol-2-yl)hydrazono)-2-(3-nitrophenyl)acetic acid] |  |  |  | 7 | 1.4 | 18 |  |
| O=C(O)/C(=N\Nc1nc(-c2ccc(Cl)c(Cl)c2)cs1)c1ccccc1[N+](=O)[O-] [KY-782-Z, (Z)-2-(2-(4-(3,4-dichlorophenyl)thiazol-2-yl)hydrazono)-2-(2-nitrophenyl)acetic acid] |  | 13 |  |  | 0.83 |  | 10 |
| COc1ccc(-c2sc(N/N=C(/Cc3ccccc3[N+](=O)[O-])C(=O)O)nc2-c2ccc(C3CCCCC3)cc2)cc1 [KY-612SF] |  |  |  |  | 1 |  | 0.1 |
| O=C(O)C(Cc1ccccc1[N+](=O)[O-])=NNc1nc(-c2cc(Br)cc(Br)c2O)cs1 [KH-102BII] |  | 9 |  | > 20 | 0.69 |  |  |
| COc1ccc(-c2nc(NN=C(Cc3ccccc3[N+](=O)[O-])C(=O)O)sc2-c2ccc(Cl)c(Cl)c2)cc1 [KY-371A11-B1] |  | 16 ± 4.9 |  | 3 ± 0.5 | 2.4 |  |  |
| COc1ccc(-c2nc(N/N=C(\Cc3ccccc3[N+](=O)[O-])C(=O)O)sc2-c2ccc(-c3ccccc3)cc2)cc1 [KY-435-F] |  |  |  |  | 0.5 | 2.8 ± 0.73 | 3 ± 0.56 |
| [N-]=[N+]=NCCCCCOc1ccc(-c2csc(N/N=C(/Cc3ccccc3[N+](=O)[O-])C(=O)O)n2)cc1 [KH-168S] |  | > 20 | 16 | 16 | 1.29 |  |  |
| Cc1ccc(-c2nc(NN=C(Cc3ccccc3[N+](=O)[O-])C(=O)O)sc2-c2ccc(Cl)c(Cl)c2)cc1 [KY-365A22-B3] |  | 3.2 |  | 3.3 | 0.85 |  |  |
| COc1cc(-c2nc(NN=C(Cc3ccccc3[N+](=O)[O-])C(=O)O)sc2-c2ccc(Cl)c(Cl)c2)cc(OC)c1OC [KY-369S] |  | 0.6 ± 0.02 |  | 2 ± 0.19 | 0.75 |  |  |
| O=C(O)/C(Cc1ccccc1[N+](=O)[O-])=N\Nc1nc(-c2ccc(OCCCCCBr)cc2)cs1 [KH-148I] |  |  |  | 0.9 | 1.50 |  |  |
| O=C(O)C(Cc1ccccc1[N+](=O)[O-])=NNc1nc(-c2ccc(OCCCCCOc3ccccc3)cc2)cs1 [KH-333S] |  |  |  |  | 0.96 |  |  |
| O=C(O)C(=NNc1nc(-c2ccc(Cl)c(Cl)c2)cs1)c1cccc([N+](=O)[O-])c1 (stereo in doubt) [KY-788-Z, (Z)-2-(2-(4-(3,4-dichlorophenyl)thiazol-2-yl)hydrazono)-2-(3-nitrophenyl)acetic acid] |  | > 20 |  |  | 0.86 |  |  |

Further lines, results first:

| IC50 [1, 4] [µM] | IC50 [1, 5] [µM] | IC50 [2, 6] [µM] | IC50 [2, 7] [µM] | Fp (ratio to Z) [3] | IC50 [1, 8] [µM] | IC50 [2, 9] [µM] | SMILES |
| --- | --- | --- | --- | --- | --- | --- | --- |
| 5 | 5 | 9 | 9 | 0.80 |  |  | [N-]=[N+]=NCCOc1ccc(-c2csc(N/N=C(/Cc3ccccc3[N+](=O)[O-])C(=O)O)n2)cc1 [KH-166] |
|  | 3 |  | 1 | 1.1 |  |  | O=C(O)/C(Cc1ccc(C(F)(F)F)cc1)=N/Nc1nc(-c2ccc(Cl)c(Cl)c2)cs1 [KY-680] |
|  | 9 |  | 3.5 | 0.75 |  |  | N.O=C(O)/C(Cn1cc(-c2ccccn2)nn1)=N/Nc1nc(-c2ccc(Cl)c(Cl)c2)cs1 [KY-767, ammonium (E)-2-(2-(4-(3,4-dichlorophenyl)thiazol-2-yl)hydrazono)-3-(4-(pyridin-2-yl)-1H-1,2,3-triazol-1-yl)propanoate] |
| 1.3 | 1.2 | 11 | 11 | 0.82 |  |  | [N-]=[N+]=NCCOc1cccc(-c2csc(N/N=C(/Cc3ccccc3[N+](=O)[O-])C(=O)O)n2)c1 [KH-174] |
|  | 3 |  | 3 | 0.7 |  |  | NC(=O)/C(Cc1ccccc1[N+](=O)[O-])=N/Nc1nc(-c2ccc(Cl)c(Cl)c2)cs1 [KY-725] |
|  | > 20 |  | > 20 | 4 |  |  | O=C(O)/C(=N\Nc1nc(-c2ccc(Cl)c(Cl)c2)cs1)c1c[nH]c2ccccc12 [KY-689, {[4-(3,4-Dichloro-phenyl)-thiazol-2-yl]-hydrazono}-(1H-indol-3-yl)-acetic acid] |
|  | 4.5 |  | 2.8 | 0.7 |  |  | COc1ccc(-c2sc(N/N=C(/Cc3ccccc3[N+](=O)[O-])C(=O)O)nc2-c2ccc(Cl)c(Cl)c2)cc1 [KY-600] |
|  | 17 |  | 16 ± 1.8 | 2.5 |  |  | COc1ccc(-c2nc(NN=C(Cc3ccccc3[N+](=O)[O-])C(=O)O)sc2-c2ccc(-n3cc(-c4ccc(N)cc4)nn3)cc2)cc1 [KY-449] |
|  | > 20 |  | 17 ± 1.29 | 1.5 |  |  | COc1ccc(-c2nc(NN=C(Cc3ccccc3[N+](=O)[O-])C(=O)O)sc2-c2ccc(-n3cc(CCCO)nn3)cc2)cc1 [KY-447] |
|  | 9 |  | 2.5 | 0.6 |  |  | O=C(O)c1nn(-c2nc(-c3ccccc3)cs2)c2ccc([N+](=O)[O-])cc12 [RYF-292] |
|  | 0.54 |  | 3.5 | 0.55 |  |  | COC(=O)C1CN(c2nc(-c3ccc(Cl)c(Cl)c3)cs2)CCN1c1ccccc1[N+](=O)[O-] (centres unmarked) [RYF-273] |
|  | 3 |  |  | 0.82 |  |  | O=C(O)[C@@H](Cc1cccc([N+](=O)[O-])c1)Nc1nc(-c2ccc(Cl)c(Cl)c2)cs1 [KY-365] |
